In patent US20150141381A1, “TETRACYCLINE COMPOUNDS HAVING TARGET THERAPEUTIC ACTIVITIES” (Paratek Pharmaceuticals, Inc., priority 2001, published 2015):
Like-named read-outs stand apart in the source and are kept apart here.

Tests used:
S. aureus RN450 = experiment: In Vitro Anti-Bacterial Activity Assay (MIC), gram positive; assay type: cell-based; details: for MIC: Staphylococcus aureus, RN450, 18 h
E. coli mL308 225 = experiment: In Vitro Anti-Bacterial Activity Assay (MIC), gram negative; assay type: cell-based; details: for MIC: Escherichia coli, ML308225, 18 h
[1] = gram positive bacteria, read-out: Antibiotic Activity Gram + (MIC)
[2] = gram negative bacteria, read-out: Antibiotic Activity Gram − (MIC)
[3] = MIC class, Table 3, read-out: Antibiotic Activity Gram +
[4] = MIC class, Table 3, read-out: Antibiotic Activity Gram −
[5] = MIC class, Table 3 (Continued), read-out: Gram+ activity
[6] = MIC class, Table 3 (Continued), read-out: Gram− activity

Row | Compound | MIC (S. aureus RN450; [1]) | MIC (E. coli mL308 225; [2]) | further results
1 | CC(=O)Cc1cc(-c2ccccn2)c2c(c1O)C(=O)C1=C(O)[C@]3(O)C(=O)C(C(N)=O)=C(O)[C@@H](N(C)C)[C@@H]3C[C@@H]1C2 | > 4 µg/mL | > 4 µg/mL | 
2 | C[C@H]1c2c(Br)ccc(O)c2C(=O)C2=C(O)[C@]3(O)C(=O)C(C(N)=O)=C(O)[C@@H](N(C)C)[C@@H]3[C@@H](O)[C@@H]21 | > 4 µg/mL | > 4 µg/mL | 
3 | CN(C)[C@H]1C(O)=C(C(N)=O)C(=O)[C@@]2(O)C(O)=C3C(=O)c4c(O)c(CNCC(C)(C)C)cc(-c5ccoc5)c4C[C@H]3C[C@@H]12 [NP] |  |  | MIC (S. aureus RN450; [3]): < 4 µg/mL; MIC (E. coli mL308 225; [4]): < 4 µg/mL
4 | CN(C)c1ccc(-c2cc(C(C)(C)C)c(O)c3c2C[C@H]2C[C@H]4[C@H](N(C)C)C(O)=C(C(N)=O)C(=O)[C@@]4(O)C(O)=C2C3=O)cc1 | > 4 µg/mL | > 4 µg/mL | 
5 | COc1cccc(CNCc2cc(N(C)C)c3c(c2O)C(=O)C2=C(O)[C@]4(O)C(=O)C(C(N)=O)=C(O)[C@@H](N(C)C)[C@@H]4C[C@@H]2C3)c1 | < 4 µg/mL | > 4 µg/mL | 
6 | CN(C)[C@@H]1C(O)=C(C(N)=O)C(=O)[C@@]2(O)C(O)=C3C(=O)c4c(O)ccc(-c5ccc(C#N)cc5)c4C[C@H]3C[C@@H]12 |  |  | MIC (S. aureus RN450; [5]): < 4 µg/mL; MIC (E. coli mL308 225; [6]): < 4 µg/mL
7 | COc1ccc(CNCc2cccc(C)c2)cc1-c1ccc(O)c2c1C[C@H]1C[C@H]3C(N(C)C)C(O)=C(C(N)=O)C(=O)[C@@]3(O)C(O)=C1C2=O (stereo partly drawn) [HO] |  |  | MIC (S. aureus RN450; [3]): < 4 µg/mL; MIC (E. coli mL308 225; [4]): < 4 µg/mL
8 | CN(C)c1cc(NC(=O)Nc2ccc(OC(F)(F)F)cc2)c(O)c2c1C[C@H]1C[C@H]3[C@H](N(C)C)C(O)=C(C(N)=O)C(=O)[C@@]3(O)C(O)=C1C2=O [CG] |  |  | MIC (S. aureus RN450; [3]): < 4 µg/mL; MIC (E. coli mL308 225; [4]): > 4 µg/mL
9 | COc1ccc(CNCC(F)(F)F)cc1-c1ccc(O)c2c1C[C@H]1C[C@H]3C(N(C)C)C(O)=C(C(N)=O)C(=O)[C@@]3(O)C(O)=C1C2=O (stereo partly drawn) [NQ] |  |  | MIC (S. aureus RN450; [3]): < 4 µg/mL; MIC (E. coli mL308 225; [4]): > 4 µg/mL
10 | CN(C)[C@@H]1C(O)=C(C(N)=O)C(=O)[C@@]2(O)C(O)=C3C(=O)c4c(O)ccc(-c5ccc(CNC#N)cc5)c4C[C@H]3C[C@@H]12 | < 4 µg/mL | < 4 µg/mL | 
11 | CN(CCCC(F)(F)F)Cc1cc(N(C)C)c2c(c1O)C(=O)C1=C(O)[C@]3(O)C(=O)C(C(N)=O)=C(O)[C@@H](N(C)C)[C@@H]3C[C@@H]1C2 | < 4 µg/mL | < 4 µg/mL | 
12 | CCCC(=O)C[C@@H]1[C@H]2[C@H](N(C)C)C(O)=C(C(N)=O)C(=O)[C@@]2(O)C(O)=C2C(=O)c3c(O)cccc3C(C)[C@H]21 (stereo partly drawn) |  |  | MIC (S. aureus RN450; [5]): < 4 µg/mL; MIC (E. coli mL308 225; [6]): < 4 µg/mL
13 | CCOC(=O)Nc1cc(N(C)C)c2c(c1O)C(=O)C1=C(O)[C@]3(O)C(=O)C(C(N)=O)=C(O)[C@@H](N(C)C)[C@@H]3C[C@@H]1C2 [drawing 3364] |  |  | Antibiotic Activity Gram + (MIC) (S. aureus RN450; gram positive bacteria): ** (compounds with MIC less than or equal to 4 μg/ml are indicated with **); Antibiotic Activity Gram − (MIC) (E. coli mL308 225; gram negative bacteria): ** (compounds with MIC less than or equal to 4 μg/ml are indicated with **)
14 | CCOP(=O)(OCC)C(Nc1ccc2c(c1O)C(=O)C1=C(O)[C@]3(O)C(=O)C(C(N)=O)=C(O)[C@@H](N(C)C)[C@@H]3[C@@H](O)[C@@H]1[C@H]2C)c1ccccc1 (stereo partly drawn) |  |  | MIC (S. aureus RN450; read-out: Gram+ activity): < 4 µg/mL; MIC (E. coli mL308 225; read-out: Gram− activity): > 4 µg/mL
15 | CN(C)c1cc(-c2ccc(CN3CCN(c4ccccc4F)CC3)o2)c(O)c2c1C[C@H]1C[C@H]3[C@H](N(C)C)C(O)=C(C(N)=O)C(=O)[C@@]3(O)C(O)=C1C2=O | > 4 µg/mL | > 4 µg/mL | 
16 | C[C@H]1c2ccc(C(C)(C)C)c(O)c2C(=O)C2=C(O)[C@]3(O)C(=O)C(C(N)=O)=C(O)[C@@H](N(C)C)[C@@H]3[C@@H](O)[C@@H]21 [O] |  |  | MIC (S. aureus RN450; [3]): < 4 µg/mL; MIC (E. coli mL308 225; [4]): > 4 µg/mL
17 | CCc1cc(-c2ccc(N(C)C)cc2)c2c(c1O)C(=O)C1=C(O)[C@]3(O)C(=O)C(C(N)=O)=C(O)[C@@H](N(C)C)[C@@H]3C[C@@H]1C2 | < 4 µg/mL | < 4 µg/mL | 
18 | CN1CCCC1=Nc1ccc(-c2ccc(O)c3c2C[C@H]2C[C@H]4[C@@H](N(C)C)C(O)=C(C(N)=O)C(=O)[C@@]4(O)C(O)=C2C3=O)cc1 [GP] |  |  | MIC (S. aureus RN450; [3]): < 4 µg/mL; MIC (E. coli mL308 225; [4]): > 4 µg/mL
19 | CCOC(=O)CNCc1ccc(-c2ccc(O)c3c2C[C@H]2C[C@H]4[C@H](N(C)C)C(O)=C(C(N)=O)C(=O)[C@@]4(O)C(O)=C2C3=O)c2ccccc12 | < 4 µg/mL | < 4 µg/mL | 
20 | C[C@H]1c2ccc(-c3ccc(N(C)C)cc3)c(O)c2C(=O)C2=C(O)[C@]3(O)C(=O)C(C(N)=O)=C(O)[C@@H](N(C)C)[C@@H]3[C@@H](O)[C@@H]21 | < 4 µg/mL | < 4 µg/mL | 

Row | Compound | MIC (S. aureus RN450; [1]) | MIC (E. coli mL308 225; [2]) | further results
21 | CN(C)c1cc(C#Cc2ccccn2)c(O)c2c1C[C@H]1C[C@H]3[C@H](N(C)C)C(O)=C(C(N)=O)C(=O)[C@@]3(O)C(O)=C1C2=O [BA] |  |  | MIC (S. aureus RN450; [3]): > 4 µg/mL; MIC (E. coli mL308 225; [4]): > 4 µg/mL
22 | COc1ccc(-c2ccc(O)c3c2C[C@H]2C[C@H]4[C@H](N(C)C)C(O)=C(C(N)=O)C(=O)[C@@]4(O)C(O)=C2C3=O)c(OC)c1OC [JM] |  |  | MIC (S. aureus RN450; [3]): < 4 µg/mL; MIC (E. coli mL308 225; [4]): > 4 µg/mL
23 | COCC(=O)Nc1ccc(-c2ccc(O)c3c2C[C@H]2C[C@H]4[C@H](N(C)C)C(O)=C(C(N)=O)C(=O)[C@@]4(O)C(O)=C2C3=O)cc1 | < 4 µg/mL | < 4 µg/mL | 
24 | CCOC(=O)/C=C/c1ccc2c(c1O)C(=O)C1=C(O)[C@]3(O)C(=O)C(C(N)=O)=C(O)[C@@H](N(C)C)[C@@H]3[C@@H](O)[C@@H]1C2C (stereo partly drawn) |  |  | MIC (S. aureus RN450; [5]): < 4 µg/mL; MIC (E. coli mL308 225; [6]): < 4 µg/mL
25 | CN(C)[C@@H]1C(O)=C(C(N)=O)C(=O)[C@@]2(O)C(O)=C3C(=O)c4c(O)ccc(-n5cccn5)c4C[C@H]3C[C@@H]12 | < 4 µg/mL | < 4 µg/mL | 
26 | CN(C)[C@@H]1C(O)=C(C(N)=O)C(=O)[C@@]2(O)C(O)=C3C(=O)c4c(O)cccc4C[C@H]3C[C@@H]12 [E] |  |  | MIC (S. aureus RN450; [3]): < 4 µg/mL; MIC (E. coli mL308 225; [4]): < 4 µg/mL
27 | CN[C@@]12C(=O)C(C(N)=O)=C(O)[C@@H](N(C)C)[C@@H]1[C@@H](OC)[C@H]1C(=C2O)C(=O)c2c(O)cccc2[C@@H]1C | > 4 µg/mL | > 4 µg/mL | 
28 | CN(C)[C@@H]1C(O)=C(C(N)=O)C(=O)[C@@]2(O)C(O)=C3C(=O)c4c(O)ccc(-c5ccc(CN6CCOCC6)o5)c4C[C@H]3C[C@@H]12 [HM] |  |  | MIC (S. aureus RN450; [3]): < 4 µg/mL; MIC (E. coli mL308 225; [4]): < 4 µg/mL
29 | CN(C)c1cc(NCc2cc(F)cc(F)c2)c(O)c2c1C[C@H]1C[C@H]3[C@H](N(C)C)C(O)=C(C(N)=O)C(=O)[C@@]3(O)C(O)=C1C2=O | > 4 µg/mL | > 4 µg/mL | 
30 | CC(=O)c1cc(N(C)C)c2c(c1O)C(=O)C1=C(O)[C@]3(O)C(=O)C(C(N)=O)=C(O)[C@@H](N(C)C)[C@@H]3C[C@@H]1C2 [MQ] |  |  | MIC (S. aureus RN450; [3]): > 4 µg/mL; MIC (E. coli mL308 225; [4]): > 4 µg/mL
31 | CN(C)c1cc(NCc2ccccc2C[C@H]2O[C@@H](CO)[C@@H](O)[C@@H](O)[C@H]2O)c(O)c2c1C[C@H]1C[C@H]3[C@H](N(C)C)C(O)=C(C(N)=O)C(=O)[C@@]3(O)C(O)=C1C2=O | > 4 µg/mL | > 4 µg/mL | 
32 | CN(C)c1cc(CNC(=O)[C@@H]2CCCN2C)c(O)c2c1C[C@H]1C[C@H]3[C@H](N(C)C)C(O)=C(C(N)=O)C(=O)[C@@]3(O)C(O)=C1C2=O | < 4 µg/mL | > 4 µg/mL | 
33 | CN(C)[C@@H]1C(O)=C(C(N)=O)C(=O)[C@@]2(O)C(O)=C3C(=O)c4c(O)ccc(CNC(=O)C(C)(C)C)c4C[C@H]3C[C@@H]12 | < 4 µg/mL | > 4 µg/mL | 
34 | CN(C)c1ccc(-c2cc(I)c(O)c3c2C[C@H]2C[C@H]4[C@H](N(C)C)C(O)=C(C(N)=O)C(=O)[C@@]4(O)C(O)=C2C3=O)cc1 | < 4 µg/mL | > 4 µg/mL | 
35 | CN(C)[C@@H]1C(O)=C(C(N)=O)C(=O)[C@@]2(O)C(O)=C3C(=O)c4c(O)ccc(-c5ccc(NC(=O)OCCF)cc5)c4C[C@H]3C[C@@H]12 | < 4 µg/mL | > 4 µg/mL | 
36 | CC(=O)c1ccc(-c2cc(N(C)C)c3c(c2O)C(=O)C2=C(O)[C@]4(O)C(=O)C(C(N)=O)=C(O)[C@@H](N(C)C)[C@@H]4C[C@@H]2C3)cc1 | < 4 µg/mL | > 4 µg/mL | 
37 | CC1C(C(=O)[C@@H]2CC(=O)C(C(N)=O)=C(O)[C@H]2N(C)C)=C(C(=O)NCC(C)(C)C)C(=O)c2c(O)cccc21 (stereo partly drawn) | > 4 µg/mL | > 4 µg/mL | 
38 | CN(C)c1cc(CNc2ccccc2)c(O)c2c1C[C@H]1C[C@H]3[C@H](N(C)C)C(O)=C(C(N)=O)C(=O)[C@@]3(O)C(O)=C1C2=O | < 4 µg/mL | > 4 µg/mL | 
39 | CN(C)[C@@H]1C(O)=C(C(N)=O)C(=O)[C@@]2(O)C(O)=C3C(=O)c4c(O)ccc(-c5ccco5)c4C[C@H]3C[C@@H]12 |  |  | MIC (S. aureus RN450; [5]): < 4 µg/mL; MIC (E. coli mL308 225; [6]): < 4 µg/mL
